This is an account of results in PubChem BioAssay AID328 (DTP/NCI, 2004).

This experiment concerns BDF1 mice, P388 leukemia ip, median survival T/C. Description: NCI In Vivo Anticancer Drug Screen. Data for tumor model P388 Leukemia (intraperitoneal) in B6D2F1 (BDF1) mice. The settings on record: endpoint: median survival time, higher = longer survival. The procedure, abridged: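 T/C = treated-group survival ÷ vehicle-control survival; tumour transplanted into mice before dosing.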

[1] abbreviates: dose: 100.0 mg/kg/injection, schedule: Q01DX009 (ip), vehicle: saline with Tween-80.
[2] abbreviates: dose: 200.0 mg/kg/injection, schedule: Q01DX009 (ip), vehicle: saline with Tween-80.
The mark [3] stands for this setting: dose: 50.0 mg/kg/injection, schedule: Q01DX009 (ip), vehicle: water.
[4] abbreviates: dose: 100.0 mg/kg/injection, schedule: Q01DX009 (ip), vehicle: water.
The mark [5] stands for this setting: dose: 100.0 mg/kg/injection, schedule: Q04DX003 (ip), vehicle: water.
Setting [6] is: dose: 200.0 mg/kg/injection, schedule: Q01DX009 (ip), vehicle: water.
The mark [7] stands for this setting: dose: 200.0 mg/kg/injection, schedule: Q04DX003 (ip), vehicle: water.
The mark [8] stands for this setting: dose: 400.0 mg/kg/injection, schedule: Q01DX009 (ip), vehicle: water.
The mark [9] stands for this setting: dose: 400.0 mg/kg/injection, schedule: Q04DX003 (ip), vehicle: water.
Setting [10] is: dose: 100.0 mg/kg/injection, schedule: Q01DX001 (ip), vehicle: saline.
[11] abbreviates: dose: 100.0 mg/kg/injection, schedule: Q04DX003 (ip), vehicle: saline.
The mark [12] stands for this setting: dose: 200.0 mg/kg/injection, schedule: Q04DX003 (ip), vehicle: saline.
[13] abbreviates: dose: 100.0 mg/kg/injection, schedule: Q04DX003 (ip), vehicle: saline with Tween-80.
The mark [14] stands for this setting: dose: 200.0 mg/kg/injection, schedule: Q04DX003 (ip), vehicle: saline with Tween-80.
Where [15] appears, read: dose: 400.0 mg/kg/injection, schedule: Q04DX003 (ip), vehicle: saline with Tween-80.
Setting [16] is: dose: 12.5 mg/kg/injection, schedule: Q01DX009 (ip), vehicle: Klucel (hydroxypropylcellulose) (HPC).
The mark [17] stands for this setting: dose: 25.0 mg/kg/injection, schedule: Q01DX009 (ip), vehicle: Klucel (hydroxypropylcellulose) (HPC).
The mark [18] stands for this setting: dose: 50.0 mg/kg/injection, schedule: Q01DX009 (ip), vehicle: saline with Tween-80.
Where [19] appears, read: dose: 12.5 mg/kg/injection, schedule: Q04DX003 (ip), vehicle: saline.
The mark [20] stands for this setting: dose: 25.0 mg/kg/injection, schedule: Q04DX003 (ip), vehicle: saline.
[21] abbreviates: dose: 50.0 mg/kg/injection, schedule: Q01DX009 (ip), vehicle: Klucel (hydroxypropylcellulose) (HPC).
The mark [22] stands for this setting: dose: 100.0 mg/kg/injection, schedule: Q01DX009 (ip), vehicle: Klucel (hydroxypropylcellulose) (HPC).

Toxic doses and inconclusive results are not listed.

As to `O=C1CCCCCC2CC12` (configuration not stated) (tested in a mixture with another compound), the T/C is, setting by setting: (dose: 100.0 mg/kg/injection, schedule: Q01DX001 (ip), vehicle: other) 98 % of control; (dose: 200.0 mg/kg/injection, schedule: Q01DX001 (ip), vehicle: other) 103 % of control; (dose: 400.0 mg/kg/injection, schedule: Q01DX001 (ip), vehicle: other) 108 % of control.

For `CC(=O)CSc1ncnc2nc[nH]c12`, the T/C is 109 % of control under setting [1] and 109 % of control under setting [2].

For `NC(=O)Nc1cc(NC(N)=O)cc(N(CCO)CCO)c1`, the T/C under setting [3] is 94 % of control; the T/C under setting [4] is 102 % of control; the T/C under setting [5] was 118 % of control; the T/C under setting [6] is 96 % of control; the T/C under setting [7] was 102 % of control; the T/C under setting [8] was 100 % of control. Besides, the T/C under setting [9] was 102 % of control.

With `CC(=O)C[P+](c1ccccc1)(c1ccccc1)c1ccccc1`, the T/C under setting [10] was 109 % of control.

For the compound `CCOC1NC(C)(C)CO1` (configuration not stated), the T/C under setting [11] was 100 % of control; the T/C under setting [12] was 91 % of control; the T/C (dose: 400.0 mg/kg/injection, schedule: Q04DX003 (ip), vehicle: saline) is 95 % of control.

With `O=C(NCCCl)NC1C(O)OC(CO)C(O)C1O` (configuration not stated), the T/C was 109 % of control (dose: 25.0 mg/kg/injection, schedule: Q01DX009 (ip), vehicle: water); 120 % of control under setting [3]; 101 % of control (dose: 50.0 mg/kg/injection, schedule: Q04DX003 (ip), vehicle: water); 92 % of control under setting [4]; 86 % of control under setting [5]; 91 % of control under setting [6]. The T/C runs as follows: under setting [7], 109 % of control; under setting [8], 94 % of control; under setting [9], 101 % of control.

Take `CC(C)N(C)C(C)(C)CO`: the T/C (dose: 50.0 mg/kg/injection, schedule: Q01DX001 (ip), vehicle: saline) was 100 % of control; the T/C under setting [10] was 100 % of control; the T/C (dose: 200.0 mg/kg/injection, schedule: Q01DX001 (ip), vehicle: saline) was 100 % of control.

`C=CCSc1nc(N)nc2nc[nH]c12`: the T/C reads like this: (dose: 100.0 mg/kg/injection, schedule: Q01DX009 (ip), vehicle: saline sonified) 110 % of control; under setting [13], 104 % of control; under setting [14], 100 % of control; under setting [15], 109 % of control.

Turning to `Cc1nc([N+](=O)[O-])cn1CC/C(N)=N/O`, the T/C under setting [13] was 108 % of control, the T/C under setting [14] was 105 % of control and the T/C under setting [15] is 115 % of control.

Take `O=C1C(Cl)=C(Cl)C(=O)c2ccccc21`: the T/C is 115 % of control (dose: 6.25 mg/kg/injection, schedule: Q01DX009 (ip), vehicle: Klucel (hydroxypropylcellulose) (HPC)); 115 % of control under setting [16]; 112 % of control under setting [17].

With `O=c1c2ccccc2nc(-c2ccccc2Cl)n1/N=C/c1cccc([N+](=O)[O-])c1`, the T/C by setting is: under setting [1], 93 % of control; under setting [2], 100 % of control.

Turning to `c1ccc(CSc2ncnc3nc[nH]c23)cc1`, the T/C by setting is: (dose: 12.5 mg/kg/injection, schedule: Q01DX010 (ip), vehicle: saline) 100 % of control; (dose: 25.0 mg/kg/injection, schedule: Q01DX010 (ip), vehicle: saline) 100 % of control; (dose: 50.0 mg/kg/injection, schedule: Q01DX010 (ip), vehicle: saline) 100 % of control; (dose: 100.0 mg/kg/injection, schedule: Q01DX010 (ip), vehicle: saline) 100 % of control.

On to `Cc1cc(O)c(NCCCN(C)C)c2c(=O)c3ccccc3sc12`, for which the T/C under setting [18] is 108 % of control and the T/C under setting [2] is 115 % of control.

With `O=C1CCCCCCCCCCC1Cc1cc(O)c(CC2CCCCCCCCCCC2=O)cc1O` (configuration not stated), the T/C was 96 % of control under setting [18], 94 % of control under setting [1] and 100 % of control under setting [2].

In the case of `Cc1c2ccccc2c(CSC(=N)N)c2ccccc12`, the T/C was 154 % of control (dose: 9.38 mg/kg/injection, schedule: Q04DX003 (ip), vehicle: saline with Tween-80); 160 % of control under setting [19]; 180 % of control under setting [20].

With `NNC(=O)c1c[nH]c2ccccc2c1=O`, the T/C was 104 % of control under setting [16]; 104 % of control under setting [17]; 91 % of control under setting [21]; 108 % of control (dose: 75.0 mg/kg/injection, schedule: Q01DX009 (ip), vehicle: Klucel (hydroxypropylcellulose) (HPC)); 91 % of control (dose: 115.0 mg/kg/injection, schedule: Q01DX009 (ip), vehicle: Klucel (hydroxypropylcellulose) (HPC)); 95 % of control (dose: 170.0 mg/kg/injection, schedule: Q01DX009 (ip), vehicle: Klucel (hydroxypropylcellulose) (HPC)).

Regarding `C=C1CC(OC(C)=O)C2C(OC(=O)C2(C)OC(=O)/C(C)=C\C)C2C(C)=CC(=O)C12` (configuration not stated), the T/C (dose: 4.0 mg/kg/injection, schedule: Q01DX009 (ip), vehicle: Klucel (hydroxypropylcellulose) (HPC)) was 100 % of control and the T/C (dose: 8.0 mg/kg/injection, schedule: Q01DX009 (ip), vehicle: Klucel (hydroxypropylcellulose) (HPC)) is 109 % of control.

Turning to `C=Cc1c(C)c(O)cc2c1CC[C@@H]1C(C)(C)[C@H](O)[C@H](O)C[C@@]21C`, the T/C under setting [22] was 102 % of control; the T/C (dose: 200.0 mg/kg/injection, schedule: Q01DX009 (ip), vehicle: Klucel (hydroxypropylcellulose) (HPC)) is 100 % of control; the T/C (dose: 400.0 mg/kg/injection, schedule: Q01DX009 (ip), vehicle: Klucel (hydroxypropylcellulose) (HPC)) was 113 % of control.

In the case of `C[C@]1(O)CC[C@H]2[C@@H]3CCC4=CC(=O)CC[C@]4(C)[C@@]3(F)[C@@H](O)C[C@@]21C`, the T/C is 100 % of control (dose: 100.0 mg/kg/injection, schedule: Q04DX003 (ip), vehicle: Klucel (hydroxypropylcellulose) (HPC)); 95 % of control (dose: 200.0 mg/kg/injection, schedule: Q04DX003 (ip), vehicle: Klucel (hydroxypropylcellulose) (HPC)); 95 % of control (dose: 400.0 mg/kg/injection, schedule: Q04DX003 (ip), vehicle: Klucel (hydroxypropylcellulose) (HPC)).

As to `[Cu+2].[O-]c1ccc(Br)c2cccnc12.[O-]c1ccc(Br)c2cccnc12`, the T/C reads like this: (dose: 12.5 mg/kg/injection, schedule: Q04DX003 (ip), vehicle: saline with Tween-80) 100 % of control; (dose: 25.0 mg/kg/injection, schedule: Q04DX003 (ip), vehicle: saline with Tween-80) 90 % of control; (dose: 50.0 mg/kg/injection, schedule: Q04DX003 (ip), vehicle: saline with Tween-80) 95 % of control; (dose: 75.0 mg/kg/injection, schedule: Q04DX003 (ip), vehicle: saline with Tween-80) 90 % of control.

On to `CCOC(=O)Nc1cc(NC(C)CCCN(CC)CC)c2ncc(-c3ccc(Cl)c(Cl)c3)nc2n1` (configuration not stated) (tested in a mixture with another compound), for which the T/C by setting is: (dose: 6.25 mg/kg/injection, schedule: Q01DX009 (ip), vehicle: saline) 109 % of control; (dose: 6.25 mg/kg/injection, schedule: Q04DX003 (ip), vehicle: saline) 95 % of control; (dose: 12.5 mg/kg/injection, schedule: Q01DX009 (ip), vehicle: saline) 100 % of control; under setting [19], 95 % of control; (dose: 25.0 mg/kg/injection, schedule: Q01DX009 (ip), vehicle: saline) 104 % of control; under setting [20], 104 % of control.

With `CS(=O)(=O)OCCCOS(C)(=O)=O`, the T/C reads like this: under setting [16], 109 % of control; under setting [17], 109 % of control; under setting [21], 119 % of control; under setting [22], 95 % of control; under setting [11], 109 % of control; under setting [12], 118 % of control.
